Assay results taken from US11931424B2, “Combination MCL-1 inhibitors with anti-body drug conjugates” (Gilead Sciences, Inc., priority 2021, dated 2024).
Where a name gives a salt, the structure may show the parent alone.

Tested on: panel of breast cancer cell lines
Assay: Compound A with targeted agents and chemotherapies, 72-hour in vitro proliferation assays
Type: cell-based
Conditions: 72-hour proliferation
[1] = AU565 cell line, compound A × partner
[2] = BT-20 cell line, compound A × partner
[3] = BT-474 cell line, compound A × partner
[4] = BT-549 cell line, compound A × partner
[5] = CAL-51 cell line, compound A × partner
[6] = CAL-85-1 cell line, compound A × partner
[7] = CAL-120 cell line, compound A × partner
[8] = CAL-148 cell line, compound A × partner
[9] = CAMA-1 cell line, compound A × partner
[10] = DU-4475 cell line, compound A × partner
[11] = EVSA-T cell line, compound A × partner
[12] = MCF7 cells, Compound A × partner agent
[13] = MDA-MB-175-VII cells, Compound A × partner agent
[14] = MDA-MB-231 cells, Compound A × partner agent
[15] = MDA-MB-361 cells, Compound A × partner agent
[16] = MDA-MB-436 cells, Compound A × partner agent
[17] = MDA-MB-453 cells, Compound A × partner agent
[18] = MDA-MB-468 cells, Compound A × partner agent
[19] = SK-BR-3 cells, Compound A × partner agent
[20] = SUM159PT cells, combination of compound A with the named agent
[21] = T47D cells, combination of compound A with the named agent
[22] = ZR-75-1 cells, combination of compound A with the named agent
[23] = ZR-75-30 cells, combination of compound A with the named agent

With `C[C@]12CC[C@@H]3c4ccc(O)cc4C[C@@H](CCCCCCCCC[S+]([O-])CCCC(F)(F)C(F)(F)F)[C@H]3[C@@H]1CC[C@@H]2O` (stereo partly drawn) [Fulvestrant] the “Bliss Volume” value [1] was 6.82, the HSA volume [1] was 2.40 and the “Loewe Volume” value [1] was 4.57. For the same compound, the “Synergy Score” value [1] was 3.43, the “Bliss Volume” value [2] was 3.55 and the HSA volume [2] was 3.62. The “Loewe Volume” value [2] was 3.44, the “Synergy Score” value [2] was 8.19 and the “Bliss Volume” value [3] was 2.68. For the same compound, the HSA volume [3] was 1.47, the “Loewe Volume” value [3] was 1.42 and the “Synergy Score” value [3] was 6.48. The “Bliss Volume” value [4] was 3.56, the HSA volume [4] was 7.74 and the “Loewe Volume” value [4] was 7.73. The “Synergy Score” value [4] was 6.08, the “Bliss Volume” value [5] was 0.71 and the HSA volume [5] was −1.89. For the same compound, the “Loewe Volume” value [5] was 0.82, the “Synergy Score” value [5] was 0.47 and the “Bliss Volume” value [6] was −4.57. The HSA volume [6] was −0.20, the “Loewe Volume” value [6] was −0.68 and the “Synergy Score” value [6] was 2.63. For the same compound, the “Bliss Volume” value [7] was −4.96, the HSA volume [7] was −4.48 and the “Loewe Volume” value [7] was −4.09. The “Synergy Score” value [7] was 0.28, the “Bliss Volume” value [8] was −1.80 and the HSA volume [8] was −2.13. The “Loewe Volume” value [8] was −0.78, the “Synergy Score” value [8] was 4.58 and the “Bliss Volume” value [9] was 4.38. The HSA volume [9] was −0.63, the “Loewe Volume” value [9] was −0.83 and the “Synergy Score” value [9] was 2.09. The “Bliss Volume” value [10] was 4.93, the HSA volume [10] was 0.13 and the “Loewe Volume” value [10] was 4.51. For the same compound, the “Synergy Score” value [10] was 2.58, the “Bliss Volume” value [11] was 6.75 and the HSA volume [11] was 1.08. For the same compound, the “Loewe Volume” value [11] was 1.59, the “Synergy Score” value [11] was 3.72 and the “Bliss Volume” value (HCC38, compound A × partner) was −3.19. For the same compound, the HSA volume (HCC38, compound A × partner) was −1.37, the “Loewe Volume” value (HCC38, compound A × partner) was −1.82 and the “Synergy Score” value (HCC38, compound A × partner) was 2.63. The “Bliss Volume” value (HCC70, compound A × partner) was 10.34, the HSA volume (HCC70, compound A × partner) was 9.70 and the “Loewe Volume” value (HCC70, compound A × partner) was 10.67. The “Synergy Score” value (HCC70, compound A × partner) was 17.18, the “Bliss Volume” value (HCC1143, compound A × partner) was 0.82 and the HSA volume (HCC1143, compound A × partner) was −4.16. For the same compound, the “Loewe Volume” value (HCC1143, compound A × partner) was 0.02, the “Synergy Score” value (HCC1143, compound A × partner) was 2.79 and the “Bliss Volume” value (HCC1569, compound A × partner) was 3.84. For the same compound, the HSA volume (HCC1569, compound A × partner) was 4.70, the “Loewe Volume” value (HCC1569, compound A × partner) was 5.59 and the “Synergy Score” value (HCC1569, compound A × partner) was 5.92. The “Bliss Volume” value (HCC1806, compound A × partner) was −0.20, the HSA volume (HCC1806, compound A × partner) was −0.86 and the “Loewe Volume” value (HCC1806, compound A × partner) was 1.90. The “Synergy Score” value (HCC1806, compound A × partner) was 2.60, the “Bliss Volume” value (HCC1937, compound A × partner) was 2.31 and the HSA volume (HCC1937, compound A × partner) was −0.65. The “Loewe Volume” value (HCC1937, compound A × partner) was 2.38, the “Synergy Score” value (HCC1937, compound A × partner) was 2.38 and the “Bliss Volume” value (HCC1954, compound A × partner) was 11.35. The HSA volume (HCC1954, compound A × partner) was 12.18, the “Loewe Volume” value (HCC1954, compound A × partner) was 11.84 and the “Synergy Score” value (HCC1954, compound A × partner) was 16.73. The “Bliss Volume” value (HCC2218, compound A × partner) was 1.16, the HSA volume (HCC2218, compound A × partner) was 1.89 and the “Loewe Volume” value (HCC2218, compound A × partner) was −1.02. For the same compound, the “Synergy Score” value (HCC2218, compound A × partner) was 3.85, the “Bliss Volume” value (HDQ-P1, compound A × partner) was −5.92 and the HSA volume (HDQ-P1, compound A × partner) was −6.15. The “Loewe Volume” value (HDQ-P1, compound A × partner) was −5.56, the “Synergy Score” value (HDQ-P1, compound A × partner) was 0.42 and the “Bliss Volume” value (HMC-1-8, compound A × partner) was 10.58. For the same compound, the HSA volume (HMC-1-8, compound A × partner) was 7.21, the “Loewe Volume” value (HMC-1-8, compound A × partner) was 7.81 and the “Synergy Score” value (HMC-1-8, compound A × partner) was 13.30. For the same compound, the “Bliss Volume” value (JIMT-1, compound A × partner) was 5.80, the HSA volume (JIMT-1, compound A × partner) was 0.54 and the “Loewe Volume” value (JIMT-1, compound A × partner) was 4.52. For the same compound, the “Synergy Score” value (JIMT-1, compound A × partner) was 1.26, the “Bliss Volume” value (KPL-1, compound A × partner) was 0.30 and the HSA volume (KPL-1, compound A × partner) was 1.12. The “Loewe Volume” value (KPL-1, compound A × partner) was 1.04, the “Synergy Score” value (KPL-1, compound A × partner) was 2.75 and the “Bliss Volume” value [12] was 11.46. For the same compound, the HSA volume [12] was 11.54, the “Loewe Volume” value [12] was 11.41 and the “Bliss Volume” value [13] was 11.56. The HSA volume [13] was 1.65, the “Loewe Volume” value [13] was 10.58 and the “Synergy Score” value [13] was 7.62. For the same compound, the “Bliss Volume” value [14] was 1.26, the HSA volume [14] was −0.76 and the “Loewe Volume” value [14] was 1.50. The “Synergy Score” value [14] was 1.17, the “Bliss Volume” value [15] was −3.29 and the HSA volume [15] was −1.23. The “Loewe Volume” value [15] was −0.47, the “Synergy Score” value [15] was 3.34 and the “Bliss Volume” value [16] was 1.52. The HSA volume [16] was 2.87, the “Loewe Volume” value [16] was 2.94 and the “Synergy Score” value [16] was 3.30. The “Bliss Volume” value [17] was −0.77, the HSA volume [17] was −3.96 and the “Loewe Volume” value [17] was −1.85. The “Synergy Score” value [17] was 4.79, the “Bliss Volume” value [18] was 6.94 and the HSA volume [18] was 6.17. The “Loewe Volume” value [18] was 7.22, the “Bliss Volume” value [19] was −2.14 and the HSA volume [19] was −3.78. The “Loewe Volume” value [19] was −2.67, the “Synergy Score” value [19] was 2.05 and the “Bliss Volume” value [20] was 2.51. For the same compound, the HSA volume [20] was 0.14, the “Loewe Volume” value [20] was 2.16 and the “Synergy Score” value [20] was 1.23. For the same compound, the “Bliss Volume” value [21] was 0.17, the HSA volume [21] was 2.12 and the “Loewe Volume” value [21] was 3.30. For the same compound, the “Synergy Score” value [21] was 4.16, the “Bliss Volume” value [22] was 5.80 and the HSA volume [22] was 4.00. The “Loewe Volume” value [22] was 6.17, the “Synergy Score” value [22] was 4.22 and the “Bliss Volume” value [23] was 1.91. The HSA volume [23] was 1.18, the “Loewe Volume” value [23] was 1.80 and the “Synergy Score” value [23] was 4.50.

In the case of `CS(=O)(=O)CCNCc1ccc(-c2ccc3ncnc(Nc4ccc(OCc5cccc(F)c5)c(Cl)c4)c3c2)o1` [Lapatinib Ditosylate], the “Best CI” value [1] is reported as 0.44, the “Best CI” value [2] is reported as 0.18 and the “Best CI” value [3] is reported as 0.02. For the same compound, the “Best CI” value [4] was 0.45, the “Best CI” value [5] was 1.14 and the “Best CI” value [6] was 0.58. The “Best CI” value [7] was 1.36, the “Best CI” value [8] was 0.38 and the “Best CI” value [9] was 0.90. For the same compound, the “Best CI” value [10] was 0.65, the “Best CI” value [11] was 0.77 and the “Best CI” value (HCC38, compound A × partner) was 0.87. For the same compound, the “Best CI” value (HCC70, compound A × partner) was 0.35, the “Best CI” value (HCC1143, compound A × partner) was 0.54 and the “Best CI” value (HCC1569, compound A × partner) was 0.53. The “Best CI” value (HCC1806, compound A × partner) was 0.74, the “Best CI” value (HCC1937, compound A × partner) was 1.22 and the “Best CI” value (HCC1954, compound A × partner) was 0.07. For the same compound, the “Best CI” value (HCC2218, compound A × partner) was 0.02, the “Best CI” value (HDQ-P1, compound A × partner) was 0.87 and the “Best CI” value (HMC-1-8, compound A × partner) was 0.50. The “Best CI” value (JIMT-1, compound A × partner) was 0.29, the “Best CI” value (KPL-1, compound A × partner) was 0.65 and the “Best CI” value [12] was 0.34. For the same compound, the “Best CI” value [13] was 0.32, the “Best CI” value [14] was 0.77 and the “Best CI” value [15] was 0.87. For the same compound, the “Best CI” value [16] was 0.51, the “Best CI” value [17] was 0.45 and the “Best CI” value [18] was 0.36. The “Best CI” value [19] was 0.15, the “Best CI” value [20] was 1.37 and the “Best CI” value [21] was 0.41. For the same compound, the “Best CI” value [22] was 0.73 and the “Best CI” value [23] was 0.31.

With `CC/C(=C(\c1ccccc1)c1ccc(OCCN(C)C)cc1)c1ccccc1` [Tamoxifen Citrate] the “Best CI” value [1] was 0.63, the “Best CI” value [2] was 1.22 and the “Best CI” value [3] was 0.67. The “Best CI” value [4] was 0.42, the “Best CI” value [5] was 1.06 and the “Best CI” value [6] was 0.49. For the same compound, the “Best CI” value [8] was 0.69, the “Best CI” value [9] was 0.27 and the “Best CI” value [10] was 0.80. For the same compound, the “Best CI” value [11] was 0.68, the “Best CI” value (HCC38, compound A × partner) was 0.98 and the “Best CI” value (HCC70, compound A × partner) was 0.50. The “Best CI” value (HCC1143, compound A × partner) was 0.19, the “Best CI” value (HCC1569, compound A × partner) was 0.50 and the “Best CI” value (HCC1806, compound A × partner) was 0.84. For the same compound, the “Best CI” value (HCC1937, compound A × partner) was 1.02, the “Best CI” value (HCC1954, compound A × partner) was 0.18 and the “Best CI” value (HCC2218, compound A × partner) was 0.45. The “Best CI” value (HDQ-P1, compound A × partner) was 0.94, the “Best CI” value (HMC-1-8, compound A × partner) was 0.58 and the “Best CI” value (JIMT-1, compound A × partner) was 0.38. For the same compound, the “Best CI” value (KPL-1, compound A × partner) was 0.54, the “Best CI” value [12] was 0.41 and the “Best CI” value [13] was 0.36. The “Best CI” value [14] was 1.06, the “Best CI” value [15] was 0.48 and the “Best CI” value [16] was 0.30. The “Best CI” value [17] was 0.45, the “Best CI” value [18] was 0.61 and the “Best CI” value (SK-BR-3 cells, combination of compound A with the named agent) was 0.66. The “Best CI” value [20] was 0.20, the “Best CI” value [21] was 0.42 and the “Best CI” value [22] was 0.99. The “Best CI” value [23] was 1.00.
